From US20080311126A1, “Antisense Oligonucleotides Directed to Ribonucleotide Reducatase R2 and Uses Thereof in Combination Therapies for the Treatment of Cancer” (Genesense Technologies, Inc, priority 2004, published 2008)
Oligonucleotides are written 5' to 3', each unit as a sugar letter and its base; * is a phosphorothioate linkage, no mark a phosphodiester; rarer units and linkages stand in square brackets, end groups in braces. Plain capitals give the bases only. d = 2'-deoxy (DNA)

Key:
Format in all cases: cell-based, human
[1] = test system: HepG2 hepatocellular carcinoma; assay: Relative colony forming efficiency (Example 17, Table 13); conditions: averages of 2-8 determinations
Method in brief: (§1)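 Phosphorothioate antisense oligodeoxynucleotides, at 0.2 μM unless otherwise indicated, were applied with 2.5 μg DOTMA/DOPE (Lipofectin) for 4 h. Colonies stained with methylene blue and scored, with viability sometimes checked by trypan blue exclusion. Values given as % inhibition of colony formation relative to lipofectin-only controls.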

[2] = test system: PC-3 prostrate cell adenocarcinoma; assay: as above; conditions: averages of 2-8 determinations
Method in brief: as §1

[3] = test system: MDA-MB-231 breast cell adenocarcinoma; assay: as above; conditions: averages of 2-8 determinations
Method in brief: as §1

[4] = test system: T24 bladder cell carcinoma; assay: as above; conditions: averages of 2-8 determinations
Method in brief: as §1

A549 lung cell carcinoma = assay: as above; conditions: averages of 2-8 determinations
Method in brief: as §1

Hela S3 cells = assay: Relative colony forming efficiency, lipofectin +/- oligonucleotide 4 hours; conditions: Hela S3 cervix carcinoma cells; averages of 2-8 determinations
Description: Colony forming efficiency was determined using standard protocols. Briefly, the cells were cultured for 24 hours at 37° C. in growth medium with 10% fetal bovine serum. The cells were washed in 5 ml phosphate buffered saline, pH 7.2, once prior to lipofectin +/−oligonucleotide treatment.
The test oligonucleotides were added to cell cultures in the presence of 2.5 μg of DOTMA/DOPE (Lipofectin; Life Technologies, Inc.) for four hours. The oligonucleotide was tested at 0.2 μM unless otherwise indicated. Controls were the cultures treated with lipofectin but without the oligonucleotide. After 4 hours the medium containing the oligonucleotide was removed and washed with 5 ml of growth medium. The cells were then cultured in growth medium containing 10% fetal bovine serum for seven to ten days. Surviving cells were visualized by methylene blue staining, and colonies were scored. In some experiments cell aliquots were removed from the culture and viability was determined using the trypan blue exclusion test. Results were analyzed as percent of surviving cells compared to control cells.
AS-II-336-20 was tested for the ability to inhibit the proliferation of human tumour cells (Hela). Hela S3 cells (American Type Culture Collection, Rockville, Md., ATCC), and a Hela cell line (Hela 1 mM) previously selected for resistance to the antitumour agent, hydroxyurea, were tested (see results in Table 11). Two experiments were undertaken with Hela S3 cells. […] The same experiment was repeated with the Hela 1 mM cell line and with varying concentrations of the antisense construct AS-II-336-20 (see results in Table 11) with similar results, […] was an effective concentration for inhibiting colony formation.
To test the antisense effects of many of these sequences as phosphorthioate deoxyribonucleotides, they were examined in relative colony forming experiments conducted as described in Example 16 with a series of human tumour cell lines. The results (shown as % inhibition of colony forming ability) obtained with cancer cells derived from the bladder, breast, lung, colon, pancreas, prostate, liver and cervix, are shown in Table 13. The specific cell lines employed are as follows:
T24=bladder cell carcinoma HCT116=colon cell carcinoma A549=lung cell carcinoma MDA-MB-231=breast cell adenocarcinoma […]=pancreatic cell carcinoma PC-3=prostrate cell adenocarcinoma HepG2=hepatocellular carcinoma HeLaS3=cells isolated from a carcinoma of the cervix T-47D=breast ductal carcinoma H596=lung adenosquamous carcinoma cells Colo320=colon cell adenocarcinoma

[5] = test system: MDA PaCa-2 pancreatic cell carcinoma; assay: Relative colony forming efficiency (Example 17, Table 13); conditions: MIA PaCa-2 pancreatic cell carcinoma; averages of 2-8 determinations
Method in brief: as §1

[6] = test system: HCT116 colon cell carcinoma; assay: as above; conditions: averages of 2-8 determinations
Method in brief: as §1

Row | Sequence | Reduced relative colony forming efficiency, HepG2 (% inhibition of colony forming ability) [1] | Reduced relative colony forming efficiency, PC-3 (% inhibition of colony forming ability) [2] | Reduced relative colony forming efficiency, MDA-MB-231 (% inhibition of colony forming ability) [3] | Reduced relative colony forming efficiency, T24 (% inhibition of colony forming ability) [4] | Reduced relative colony forming efficiency, A549 (% inhibition of colony forming ability) (A549 lung cell carcinoma) | Reduced relative colony forming efficiency, Hela S3 (% inhibition of colony forming ability) (Hela S3 cells) | Reduced relative colony forming efficiency, MIA PaCa-2 (% inhibition of colony forming ability) [5] | Reduced relative colony forming efficiency, HCT116 (% inhibition of colony forming ability) [6]
1 | AACTTCTTGGCTAAATCGCT (antisense dA*dA*dC*dT*dT*dC*dT*dT*dG*dG*dC*dT*dA*dA*dA*dT*dC*dG*dC*dT) [AS-II-634-20] | 95.78% | 77.86% | 92.44% | 83.52% | 57.76% | 48.94% | – | –
2 | ACCCCTCACTCCAGCAGCCT (antisense dA*dC*dC*dC*dC*dT*dC*dA*dC*dT*dC*dC*dA*dG*dC*dA*dG*dC*dC*dT) [AS-II-110-20] | 97.14% | 92.06% | 90.92% | 87.78% | 89.38% | 53.98% | 47.51% | 71.69%
3 | CCTCCTCGGCGGTCCAAAAG (antisense dC*dC*dT*dC*dC*dT*dC*dG*dG*dC*dG*dG*dT*dC*dC*dA*dA*dA*dA*dG) [AS-II-494-20] | 93.37% | 30.6% | 54.78% | 54.23% | 33.85% | 43.62% | 25.31% | 50.28%
4 | CGGCGGCGTGTTCTCCTTGT (antisense dC*dG*dG*dC*dG*dG*dC*dG*dT*dG*dT*dT*dC*dT*dC*dC*dT*dT*dG*dT) [AS-II-280-20] | 97.14% | 77.51% | 79.14% | 90.56% | 61.81% | 41.79% | 53.94% | 69.42%
5 | GGAAGATGACAAAGCGGCGG (antisense dG*dG*dA*dA*dG*dA*dT*dG*dA*dC*dA*dA*dA*dG*dC*dG*dG*dC*dG*dG) [AS-II-425-20] | 97.89% | 75.65% | 89.75% | 90.37% | 57.38% | 63.09% | 65.2% | –
6 | GGCATCAGTCCTCGTTTCTT (antisense dG*dG*dC*dA*dT*dC*dA*dG*dT*dC*dC*dT*dC*dG*dT*dT*dT*dC*dT*dT) [AS-II-933-20] | – | 36.91% | 64.39% | 64.84% | 53.52% | 26.86% | 35.68% | 67.24%
7 | GGTTTTCTCTCAGCAGCGGC (antisense dG*dG*dT*dT*dT*dT*dC*dT*dC*dT*dC*dA*dG*dC*dA*dG*dC*dG*dG*dC) [AS-II-404-20] | 84.79% | 77.08% | 85.83% | 84.26% | 52.17% | 58.37% | 17.84% | –
8 | TATCTCTCCTCGGGTTTCAG (antisense dT*dA*dT*dC*dT*dC*dT*dC*dC*dT*dC*dG*dG*dG*dT*dT*dT*dC*dA*dG) [AS-II-549-20] | 84.04% | – | 40.13% | 45.46% | 30.57% | 27.8% | 17.01% | 47.83%
9 | TCCTTTATCCCACAACACTC (antisense dT*dC*dC*dT*dT*dT*dA*dT*dC*dC*dC*dA*dC*dA*dA*dC*dA*dC*dT*dC) [AS-II-2067-20] | 90.36% | – | 49.68% | 49.6% | 64.71% | 24.88% | 41.08% | 47.16%
10 | TCGCTCCACCAAGTTTTCAT (antisense dT*dC*dG*dC*dT*dC*dC*dA*dC*dC*dA*dA*dG*dT*dT*dT*dT*dC*dA*dT) [AS-II-619-20] | 92.02% | 88.01% | 91.08% | 86.3% | 65.67% | 31.22% | 39.83% | –
11 | TGTAAACCCTCATCTCTGCT (antisense dT*dG*dT*dA*dA*dA*dC*dC*dC*dT*dC*dA*dT*dC*dT*dC*dT*dG*dC*dT) [AS-II-981-20] | 95.03% | 85.16% | 91.48% | 86.3% | 74.25% | 69.43% | – | 66.84%
12 | TTAGTCTTTCCTTCCAGTGA (antisense dT*dT*dA*dG*dT*dC*dT*dT*dT*dC*dC*dT*dT*dC*dC*dA*dG*dT*dG*dA) [AS-II-1254-20] | 83.28% | 73.31% | – | 41.53% | 36.74% | 7.64% | 3.32% | 28.54%
